Reference: patent US6962808B2, “Method and apparatus for measurement of the effect of test compounds on signal transduction at the level of biological receptors” (The University of Louisville Research Foundation, priority 1998, dated 2005)

Target: T1, human estrogen receptor binding to ERE (Homo sapiens, UniProt P03372)
T1 construct: ubiquitin (fusion partner); made in house; host or cells: Saccharomyces cerevisiae strain AF103, YEpE10 plasmid, CUP1 promoter
Assay: Evanescent fiber optic sensor, ERE fiber, binding of Cy5-tagged hER to the estrogen response element
Assay type: biochemical
Experimental: This solution comprised said calibration standard of component 6a. […] This receptor preparation was used as the calibration solution. Immediately after preparation it was pipetted in 135 μl aliquots into microcentrifuge tubes, snap frozen and stored at −80° C. They were not thawed again until they were used with the fiber sensor.

T1 sequence (P03372 whole entry, the tested form may be a part): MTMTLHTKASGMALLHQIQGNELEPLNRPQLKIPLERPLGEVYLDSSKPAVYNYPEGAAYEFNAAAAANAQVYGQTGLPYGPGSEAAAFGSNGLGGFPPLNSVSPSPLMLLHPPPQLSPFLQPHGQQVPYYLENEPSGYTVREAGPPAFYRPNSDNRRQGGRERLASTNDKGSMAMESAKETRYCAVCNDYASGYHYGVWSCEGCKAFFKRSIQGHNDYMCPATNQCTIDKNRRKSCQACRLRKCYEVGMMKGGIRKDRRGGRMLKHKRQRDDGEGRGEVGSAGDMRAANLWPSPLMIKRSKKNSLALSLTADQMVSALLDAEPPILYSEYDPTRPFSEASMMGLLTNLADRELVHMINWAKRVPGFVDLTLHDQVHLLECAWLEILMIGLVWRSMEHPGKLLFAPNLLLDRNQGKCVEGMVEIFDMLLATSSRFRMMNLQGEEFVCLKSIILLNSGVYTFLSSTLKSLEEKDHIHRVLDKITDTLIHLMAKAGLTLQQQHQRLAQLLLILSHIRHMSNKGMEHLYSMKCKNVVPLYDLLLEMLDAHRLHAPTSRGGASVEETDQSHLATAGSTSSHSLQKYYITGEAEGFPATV

C[C@H]1CCCC(=O)CCC/C=C/c2cc(O)cc(O)c2C(=O)O1 [zearalenone]
Response of ERE fiber to hER and 10^−6 M compound (control = 3.51) (S/C value, control = 3.51): 5.01 | effect on binding of hER to the ERE fiber (in words, 10^−6 M compound): increase binding to the ERE more than do the weak biological estrogens
